Tested on: histone H2AX
Test: Phosphoflow of phosphorylated H2AX in isolated leukemia cells
Format: cell-based, human
Conditions: 200 nM, 12 hours; isolated leukemia cells (n = 4)
Method: Protein phosphorylation levels were evaluated by phosphoflow. Briefly, isolated leukemia cells from patients with CLL were treated with 200 nM EC-7072 or DMSO for 8 or 12 hours. In some experiments, BCR signaling was activated with goat F(ab')2 anti-IgM antibody (10 µg/mL; SouthernBiotech) for 45 minutes. Right afterwards, cells were fixed with 1.8% paraformaldehyde for 10 minutes at RT and permeabilized with 90% ice-cold methanol for 25 minutes at 4 °C. Finally, cells were incubated with specific phospho-antibodies (p-SYK, p-BTK, p-ERK1/2 and p-H2AX from Biolegend, and p-PLCγ2, p-AKT, p-p65 NF-κB and p-STAT3 from BD Bioscience) for 30 minutes at RT and mean fluorescence intensity (MFI) was analyzed by flow cytometry.
The induction of caspase-dependent apoptosis on primary CLL cells by EC-7072 was assessed by: • (i) incubating PBMCs isolated from patients with CLL (n = 6) following treatment with increasing concentrations of EC-7072 (0 - 400 nM) for 24 hours. Apoptosis of leukemia cells was evaluated by cytofluorometric assessment of Annexin V/PI staining to obtain percentages of apoptotic [Annexin V^+ PI^-] and dead [PI^+] cells (Figure 3A); • (ii) incubating PBMCs and T cells isolated from patients with CLL (n = 3) following treatment with EC-7072 (200 nM) for 24 hours. […]

## CO[C@@H]([C@@H]1Cc2cc3cc(O[C@H]4C[C@@H](O[C@H]5C[C@@H](O)[C@H](O)[C@@H](C)O5)[C@H](O)[C@@H](C)O4)c(C)c(O)c3c(O)c2C(=O)[C@H]1O[C@H]1C[C@@H](O[C@H]2C[C@@H](O[C@H]3C[C@](C)(O)[C@H](O)[C@@H](C)O3)[C@@H](O)[C@@H](C)O2)[C@H](O)[C@@H](C)O1)[C@@H](O)C(C)=O [EC-7072, mithramycin SK]
  phosphorylation of histone H2AX: heightened phosphorylation

Source: patent publication EP3797781A1, “USE OF EC-7072 AND SYNERGIC COMPOSITIONS THEREOF IN TREATMENT OF CHRONIC LYMPHOCYTIC LEUKEMIA” (priority 2019, dated 2021)
